Literature values, collected in patent US20140080711A1, “SUSPENSION OF PARTICLES COMPRISING CYCLOPROPENE COMPLEXES DISPERSED IN A RESIN MATRIX” (AgroFresh Inc., priority 2012, published 2014).

Test system: ethylene receptors

## CC1=CC1 [Sample 1-MCP, 1-methylcyclopropene]
  affinity for the receptor relative to that of ethylene: approximately 10 times
